Where a SMILES comes first, the peptide text is derived from it.
target: HLA B*1501 (Homo sapiens, UniProt P01889, A329T/A93T/A95T/C349S/D201E/D98Y/E187L/E204Q/E69M/E70A/K202T/N87E/Q94N/R155S/R180W/S121R/S35A/S48A/V306I/V36M/Y140S/Y91S); test: biochemical; assay type: binding

SMILES	IC50 [nM]
CC(C)C[C@H](NC(=O)[C@H](C)NC(=O)[C@@H](NC(=O)[C@H](Cc1ccccc1)NC(=O)[C@H](CS)NC(=O)[C@H](Cc1ccccc1)NC(=O)[C@H](Cc1ccc(O)cc1)NC(=O)[C@@H](NC(=O)[C@@H](N)CC(C)C)[C@@H](C)O)C(C)C)C(=O)O [3102.1028] (H-LTYFCFVAL-OH)	29
CC[C@H](C)[C@H](NC(=O)[C@H](CO)NC(=O)[C@H](CO)NC(=O)[C@H](CCCCN)NC(=O)[C@@H](NC(=O)[C@@H](N)CC(C)C)C(C)C)C(=O)N[C@@H](CC(C)C)C(=O)N[C@H](C(=O)N[C@@H](CC(C)C)C(=O)O)[C@@H](C)O [3102.0793] (H-LVKSSILTL-OH)	3.1
CC[C@H](C)[C@H](NC(=O)[C@H](CCC(N)=O)NC(=O)[C@@H](N)CC(C)C)C(=O)N[C@@H](Cc1ccccc1)C(=O)N[C@@H](CO)C(=O)N[C@@H](CC(N)=O)C(=O)N[C@@H](CO)C(=O)N[C@H](C(=O)NCC(=O)O)C(C)C [3102.0809] (H-LQIFSNSVG-OH)	2.1
CC[C@H](C)[C@H](N)C(=O)N[C@H](C(=O)N[C@@H](Cc1ccc(O)cc1)C(=O)N[C@@H](CS)C(=O)N[C@@H](CC(C)C)C(=O)N[C@H](C(=O)N[C@H](C(=O)N[C@@H](Cc1c[nH]cn1)C(=O)N[C@@H](CCSC)C(=O)O)[C@@H](C)O)C(C)C)[C@@H](C)O [3102.0993] (H-ITYCLVTHM-OH)	25
CC[C@H](C)[C@H](NC(=O)[C@@H](NC(=O)[C@@H](N)CC(C)C)[C@@H](C)CC)C(=O)N[C@@H](CCCCN)C(=O)N[C@@H](CO)C(=O)N[C@@H](CC(=O)O)C(=O)N[C@@H](Cc1c[nH]cn1)C(=O)N[C@@H](CCC(=O)O)C(=O)N[C@@H](Cc1ccccc1)C(=O)O [3102.0804] (H-LIIKSDHEF-OH)	1.6
CC(C)C[C@H](N)C(=O)N[C@@H](C)C(=O)N[C@@H](CCCCN)C(=O)N[C@@H](CCCCN)C(=O)N[C@@H](CO)C(=O)N[C@@H](Cc1ccc(O)cc1)C(=O)N[C@H](C(=O)N[C@H](C(=O)N[C@@H](Cc1ccccc1)C(=O)O)C(C)C)C(C)C [3102.0811] (H-LAKKSYVVF-OH)	97
CC[C@H](C)[C@H](NC(=O)[C@@H](N)CCC(=O)O)C(=O)N[C@@H](C)C(=O)N[C@@H](CCCCN)C(=O)N[C@@H](Cc1ccc(O)cc1)C(=O)NCC(=O)N[C@@H](Cc1c[nH]cn1)C(=O)N[C@@H](CO)C(=O)N[C@@H](Cc1ccccc1)C(=O)O [3102.0911] (H-EIAKYGHSF-OH)	58
CC(C)C[C@H](N)C(=O)N[C@@H](C)C(=O)N[C@@H](CC(N)=O)C(=O)N[C@H](C(=O)N[C@@H](CC(N)=O)C(=O)N[C@@H](Cc1ccccc1)C(=O)N[C@@H](Cc1ccccc1)C(=O)N[C@H](C(=O)N[C@@H](Cc1ccccc1)C(=O)O)C(C)C)[C@@H](C)O [3102.0800] (H-LANTNFFVF-OH)	17
CC(C)C[C@H](NC(=O)[C@H](CS)NC(=O)[C@H](CCCCN)NC(=O)[C@H](CCCCN)NC(=O)[C@H](Cc1ccccc1)NC(=O)[C@H](CO)NC(=O)[C@@H](N)Cc1ccccc1)C(=O)N[C@H](C(=O)N[C@@H](Cc1ccc(O)cc1)C(=O)O)C(C)C [3102.0925] (H-FSFKKCLVY-OH)	4.7
CC[C@H](C)[C@H](NC(=O)[C@H](CO)NC(=O)[C@H](CC(C)C)NC(=O)CNC(=O)[C@H](CCC(=O)O)NC(=O)[C@H](CO)NC(=O)[C@H](Cc1ccc(O)cc1)NC(=O)[C@H](CC(C)C)NC(=O)[C@@H](N)CCCNC(=N)N)C(=O)O [3102.1232] (H-RLYSEGLSI-OH)	4.5
CC[C@H](C)[C@H](NC(=O)[C@H](CO)NC(=O)[C@@H](N)CCSC)C(=O)N[C@@H](CC(=O)O)C(=O)N[C@@H](Cc1c[nH]cn1)C(=O)N[C@@H](CS)C(=O)N[C@@H](CO)C(=O)N[C@@H](CO)C(=O)N[C@@H](Cc1ccccc1)C(=O)O [3102.0989] (H-MSIDHCSSF-OH)	0.95
CSCC[C@H](NC(=O)[C@H](C)NC(=O)[C@H](CCCCN)NC(=O)[C@H](Cc1ccccc1)NC(=O)[C@@H](NC(=O)[C@@H](N)CC(N)=O)C(C)C)C(=O)N[C@@H](CCC(=O)O)C(=O)N[C@H](C(=O)N[C@@H](Cc1ccccc1)C(=O)O)[C@@H](C)O [3102.0887] (H-NVFKAMETF-OH)	23
CSCC[C@H](NC(=O)[C@@H](N)CCCNC(=N)N)C(=O)N[C@@H](CC(N)=O)C(=O)N[C@H](C(=O)N[C@@H](Cc1ccccc1)C(=O)N[C@@H](CC(N)=O)C(=O)NCC(=O)N[C@@H](Cc1c[nH]cn1)C(=O)N[C@@H](CC(C)C)C(=O)O)C(C)C [3102.0797] (H-RMNVFNGHL-OH)	28
CC[C@H](C)[C@H](NC(=O)[C@H](CCSC)NC(=O)[C@@H](N)CCC(=O)O)C(=O)N[C@@H](CC(C)C)C(=O)N[C@@H](CO)C(=O)N[C@H](C(=O)N[C@@H](CO)C(=O)N[C@@H](CO)C(=O)N[C@@H](CCSC)C(=O)O)[C@@H](C)O [3102.0806] (H-EMILSTSSM-OH)	1.5
CSCC[C@H](N)C(=O)N[C@H](C(=O)N[C@@H](Cc1ccc(O)cc1)C(=O)N[C@@H](CCCCN)C(=O)N[C@@H](CC(C)C)C(=O)N[C@H](C(=O)N[C@@H](CC(C)C)C(=O)N[C@@H](CC(C)C)C(=O)N[C@@H](Cc1ccccc1)C(=O)O)C(C)C)C(C)C [3102.0893] (H-MVYKLVLLF-OH)	71
C[C@@H](O)[C@H](N)C(=O)N[C@@H](CO)C(=O)NCC(=O)N[C@@H](CCCCN)C(=O)N[C@@H](Cc1ccc(O)cc1)C(=O)N[C@@H](Cc1ccccc1)C(=O)N[C@@H](CO)C(=O)N[C@H](C(=O)N[C@@H](Cc1ccccc1)C(=O)O)[C@@H](C)O [3102.0812] (H-TSGKYFSTF-OH)	86
CSCC[C@H](NC(=O)[C@H](Cc1c[nH]cn1)NC(=O)[C@H](CCCCN)NC(=O)[C@H](CC(N)=O)NC(=O)[C@@H](NC(=O)[C@H](CC(N)=O)NC(=O)[C@H](CO)NC(=O)[C@H](CCC(N)=O)NC(=O)[C@@H](N)CCCCN)[C@@H](C)O)C(=O)O [3102.1026] (H-KQSNTNKHM-OH)	28
CC[C@H](C)[C@H](NC(=O)[C@H](C)NC(=O)[C@H](CC(N)=O)NC(=O)[C@H](Cc1ccccc1)NC(=O)[C@H](CC(C)C)NC(=O)[C@@H](N)Cc1ccc(O)cc1)C(=O)N[C@@H](CCC(=O)O)C(=O)N[C@H](C(=O)N[C@@H](CCSC)C(=O)O)[C@@H](C)O [3102.0905] (H-YLFNAIETM-OH)	1.4
CC[C@H](C)[C@H](NC(=O)[C@@H](NC(=O)[C@@H](N)CO)[C@@H](C)CC)C(=O)N[C@H](C(=O)N[C@@H](CC(C)C)C(=O)N[C@@H](Cc1ccccc1)C(=O)N[C@@H](CCC(N)=O)C(=O)N[C@@H](CCCNC(=N)N)C(=O)N[C@@H](Cc1ccccc1)C(=O)O)C(C)C [3102.0801] (H-SIIVLFQRF-OH)	1.1
CSCC[C@H](NC(=O)[C@@H](NC(=O)[C@H](CCC(=O)O)NC(=O)[C@H](CCSC)NC(=O)[C@H](CC(C)C)NC(=O)[C@H](CCSC)NC(=O)[C@H](Cc1ccccc1)NC(=O)[C@@H](NC(=O)[C@H](C)N)C(C)C)[C@@H](C)O)C(=O)O [3102.0831] (H-AVFMLMETM-OH)	26
CSCC[C@H](NC(=O)[C@H](Cc1ccc(O)cc1)NC(=O)[C@H](CO)NC(=O)[C@H](CCC(=O)O)NC(=O)[C@H](Cc1ccc(O)cc1)NC(=O)[C@H](CS)NC(=O)[C@H](Cc1c[nH]cn1)NC(=O)[C@H](CC(C)C)NC(=O)[C@@H](N)CCSC)C(=O)O [3102.0879] (H-MLHCYESYM-OH)	97
CC[C@H](C)[C@H](NC(=O)[C@H](CCCNC(=N)N)NC(=O)[C@H](Cc1ccc(O)cc1)NC(=O)[C@H](CCC(N)=O)NC(=O)[C@@H](NC(=O)[C@@H](N)CC(C)C)C(C)C)C(=O)N[C@@H](CC(C)C)C(=O)N1CCC[C@H]1C(=O)N[C@@H](CCSC)C(=O)O [3102.0954] (H-LVQYRILPM-OH)	63
CC(C)C[C@H](NC(=O)[C@H](CCCCN)NC(=O)[C@H](CS)NC(=O)[C@H](CC(C)C)NC(=O)[C@@H](N)CO)C(=O)N[C@@H](CC(N)=O)C(=O)N[C@@H](CC(N)=O)C(=O)N[C@H](C(=O)N[C@@H](Cc1ccccc1)C(=O)O)C(C)C [3102.0874] (H-SLCKLNNVF-OH)	16
CSCC[C@H](NC(=O)[C@@H](N)CCCNC(=N)N)C(=O)N[C@@H](Cc1ccccc1)C(=O)N[C@@H](Cc1c[nH]cn1)C(=O)N[C@@H](Cc1ccccc1)C(=O)N[C@@H](Cc1ccccc1)C(=O)N[C@@H](CCC(=O)O)C(=O)N[C@@H](Cc1c[nH]cn1)C(=O)N[C@@H](CCC(=O)O)C(=O)O [3102.0915] (H-RMFHFFEHE-OH)	67
CSCC[C@H](NC(=O)[C@@H](N)CC(C)C)C(=O)N[C@@H](CC(N)=O)C(=O)N[C@@H](CC(N)=O)C(=O)N[C@@H](CC(C)C)C(=O)N[C@@H](CC(=O)O)C(=O)N[C@H](C(=O)N[C@@H](CC(C)C)C(=O)N[C@@H](Cc1ccccc1)C(=O)O)[C@@H](C)O [3102.0836] (H-LMNNLDTLF-OH)	86
CC[C@H](C)[C@H](NC(=O)[C@H](CC(N)=O)NC(=O)[C@H](CC(N)=O)NC(=O)[C@@H](NC(=O)[C@@H](N)CO)[C@@H](C)CC)C(=O)N[C@@H](CC(=O)O)C(=O)N1CCC[C@H]1C(=O)N[C@@H](Cc1c[nH]cn1)C(=O)N[C@@H](Cc1ccccc1)C(=O)O [3102.1039] (H-SINNIDPHF-OH)	12
CSCC[C@H](NC(=O)[C@H](CCC(N)=O)NC(=O)[C@H](CCC(N)=O)NC(=O)[C@@H](NC(=O)[C@H](CCC(=O)O)NC(=O)[C@@H]1CCCN1C(=O)[C@H](CO)NC(=O)[C@H](CO)NC(=O)[C@@H](N)CCCCN)[C@@H](C)O)C(=O)O [3102.1065] (H-KSSPETQQM-OH)	30
CC(C)C[C@H](NC(=O)[C@@H]1CCCN1C(=O)[C@H](CCCNC(=N)N)NC(=O)[C@H](Cc1ccc(O)cc1)NC(=O)[C@H](Cc1ccccc1)NC(=O)[C@@H](NC(=O)CN)C(C)C)C(=O)N[C@@H](Cc1c[nH]cn1)C(=O)N[C@@H](Cc1ccccc1)C(=O)O [3102.0847] (H-GVFYRPLHF-OH)	5.5
CC(C)C[C@H](NC(=O)[C@H](Cc1ccccc1)NC(=O)[C@H](C)NC(=O)CNC(=O)[C@H](CS)NC(=O)[C@H](CC(C)C)NC(=O)[C@@H](N)CCC(=O)O)C(=O)N[C@@H](Cc1ccccc1)C(=O)N[C@@H](Cc1ccc(O)cc1)C(=O)O [3102.1015] (H-ELCGAFLFY-OH)	7.5
